Data reported in PMC11448233, “High-throughput screening identification of apigenin that reverses the colistin resistance of mcr-1-positive pathogens” (Microbiology Spectrum, 2024).

Legend:
mcr-1 protein [1] = biological target: T1, mcr-1 protein (Escherichia coli, UniProt A0A0R6L508); assay: microscale thermophoresis; type: binding
T1 construct: gene mcr1; mcr-1 amplified from K. pneumoniae ZJ02, pET28a(+) NheI/XhoI, E. coli BL21(DE3), Ni-NTA; tag removal not mentioned

mcr-1 protein [2] = biological target: T1, mcr-1 protein; assay: nano differential scanning fluorimetry; type: binding; conditions: apigenin 32 µg/mL, mcr-1 100 µg/mL, PBS, 20 min incubation, 25-95 °C at 5 °C/min; Tm lowered (destabilised)

T1 sequence (A0A0R6L508 whole entry): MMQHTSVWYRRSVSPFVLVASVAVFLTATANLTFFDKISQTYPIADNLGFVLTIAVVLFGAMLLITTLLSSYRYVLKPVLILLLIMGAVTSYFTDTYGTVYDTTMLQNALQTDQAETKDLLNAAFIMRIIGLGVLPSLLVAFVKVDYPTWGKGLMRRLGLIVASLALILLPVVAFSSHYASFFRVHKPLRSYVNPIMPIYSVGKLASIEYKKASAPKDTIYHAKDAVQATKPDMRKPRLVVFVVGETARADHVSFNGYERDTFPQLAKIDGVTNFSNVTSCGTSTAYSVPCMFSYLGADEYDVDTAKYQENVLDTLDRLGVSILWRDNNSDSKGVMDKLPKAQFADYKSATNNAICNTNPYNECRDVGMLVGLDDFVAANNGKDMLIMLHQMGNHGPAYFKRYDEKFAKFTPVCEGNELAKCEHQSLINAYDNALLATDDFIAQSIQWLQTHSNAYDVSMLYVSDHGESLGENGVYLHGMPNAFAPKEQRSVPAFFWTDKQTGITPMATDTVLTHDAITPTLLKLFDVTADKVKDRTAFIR

Work on `O=c1cc(-c2ccc(O)cc2)oc2cc(O)cc(O)c12` [apigenin] yielded a Kd (mcr-1 protein [1]) of 4.35 µM and a Tm decrease (mcr-1 protein [2]) of 5.7 °C.
